According to US20250051355A1, “COMPOUNDS, COMPOSITIONS, AND METHODS” (ACONCAGUA BIO, INC., priority 2023, published 2025):

Tests used:
Type in all cases: cell-based
[1] = molecular target: T1, human calcitonin receptor (CTR) and RAMP3 (AMY3) (Homo sapiens, UniProt O60896+P30988); test: Amylin Receptor cAMP Assay I; details: COS-7/AMY3 cells, cAMP Hi-range Kit, read-out: Amylin Receptor cAMP Stimulation Activity: EC50
Source text: Amylin Receptor cAMP Assay I
AMYRs are heterodimers of the class B calcitonin (CT) G-protein-coupled receptor (CTR) and receptor activity-modifying proteins (RAMPs). All three RAMPs can interact with the CTR and form AMY1, AMY2, AMY3 with RAMP1, RAMP2 and RAMP3, respectively. Like other class B1 GPCRs, the CT receptor family is canonically coupled to Gs-mediated cAMP production, and measurement of cAMP accumulation has been the primary assay used to determine peptide selectivity and potency.
To optimize functional activity directed toward Gas coupling, COS-7 cells were stably transfected with human calcitonin receptor (CTR) and RAMP3, simultaneously. 100×concentration of compound working solutions were prepared (Agilent Technologies Bravo) with 4-fold serial dilution in 384-well Echo LDV plate (Labcyte, Cat #LP-0200). 100 nL/well 100× concentration of compound working solutions were moved to 384-well white low volume plate (Greiner, Cat #784075) using Labcyte ECHO550. 1×10^5 cells/mL COS-7/CTR or COS-7/AMY3 (HD Biosciences) cell suspensions prepared with assay buffer [DPBS containing 0.5 mM IBMX (Sigma, Cat #15879) and 0.1% BSA (GENVIEW, Cat #FAO16-100 g)], 10 μL cell suspensions were added to each well of previous generated assay plate which already contains 100 nL compound at 100× concentration using ThermoFisher Multidrop Combi (1000 cells/well). Seal the plate and incubate at 37° C. with 5% CO2 for 30 min.
After incubation, the cAMP assay signal was generated using cAMP Hi-range Kit (Cisbio). 5 μL cAMP-d2 working solution was added to each well, followed by 5 μL Anti-cAMP antibody-cryptate working solution which was added to each well using ThermoFisher Multidrop Combi. The samples were then incubated at room temperature for 1 hour protected from light. the fluorescence was read at 665 and 615 nm with Reader PerkinElmer EnVision.

[2] = molecular target: T2, human calcitonin receptor (CTR) (Homo sapiens, UniProt P30988); test: Calcitonin receptor (CTR) cAMP Assay; details: COS7-human CTR Clone #2 cells, cAMP dynamic 2 kit; read-out: Calcitonin Receptor cAMP Stimulation Activity: EC50
T2 construct: expressed in transfected cells; host or cells: COS-7 (COS7-human CTR Clone #2)
T2 sequence (P30988 25-474): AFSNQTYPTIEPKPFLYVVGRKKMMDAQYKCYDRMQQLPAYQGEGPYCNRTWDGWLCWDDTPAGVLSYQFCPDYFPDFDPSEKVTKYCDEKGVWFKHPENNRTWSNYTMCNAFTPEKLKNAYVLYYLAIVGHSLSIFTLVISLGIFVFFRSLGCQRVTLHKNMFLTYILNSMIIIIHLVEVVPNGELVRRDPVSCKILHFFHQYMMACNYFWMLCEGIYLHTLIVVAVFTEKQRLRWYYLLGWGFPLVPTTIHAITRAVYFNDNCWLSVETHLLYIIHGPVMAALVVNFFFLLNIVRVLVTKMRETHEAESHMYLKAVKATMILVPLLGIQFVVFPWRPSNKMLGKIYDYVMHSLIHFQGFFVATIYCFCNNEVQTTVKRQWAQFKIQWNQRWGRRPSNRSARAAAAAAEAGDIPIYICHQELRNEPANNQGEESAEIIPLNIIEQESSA
Summary of the method: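 COS-7 cells stably expressing human CTR (2000 cells/well) treated with 4-fold serially diluted compounds in HBSS/20 mM HEPES/0.5 mM IBMX/0.1% casein, 30 min at 37° C. cAMP quantified by HTRF (cAMP-d2 plus anti-cAMP cryptate, 1 h RT), fluorescence read at 665 and 615 nm.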

[3] = molecular target: T1, human calcitonin receptor (CTR) and RAMP3 (AMY3); test: Amylin Receptor cAMP Assay II; details: COS-7/AMY3 cells, cAMP dynamic 2 kit, read-out: Amylin Receptor cAMP Stimulation Activity: EC50
Summary of the method: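 COS-7 cells stably co-expressing human CTR and RAMP3 (AMY3) were treated with 4-fold serially diluted compounds at 2000 cells/well in HBSS with 20 mM HEPES, 0.5 mM IBMX and 0.1% casein for 30 min at 37 °C. cAMP was measured by HTRF (cAMP-d2 plus anti-cAMP cryptate, 1 h at RT) with reads at 665/615 nm.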

T1 sequence (O60896 24-148, one chain of several): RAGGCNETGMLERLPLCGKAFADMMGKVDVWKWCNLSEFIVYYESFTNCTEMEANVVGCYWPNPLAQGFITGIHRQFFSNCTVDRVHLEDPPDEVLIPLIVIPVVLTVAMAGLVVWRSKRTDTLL

Row | SMILES | EC50 [1] | EC50 [2] | EC50 [3]
1 | CO[C@H]1C[C@@H](NC(=O)c2ccc(-c3c4c(nc(CCc5ccc(F)cc5)c3-c3nnc(C)o3)[C@@H]3CCCN3C4=O)s2)c2ccccc21 (stereo in doubt) [Compound 30, N-[(1R,3S)-3-methoxy-1-indanyl]-5-{(2S,6R)-11-[2-(p-fluorophenyl)ethyl]-10-(5-methyl-1,3,4-oxadiazol-2-yl)-7-oxo-6,12-diazatricyclo[6.4.0^2,^6]dodeca-1(8),9,11-trien-9-yl}-2-thenamide] | 63.5 nM |  | 
2 | CO[C@@H]1C[C@@H](NC(=O)c2ccc(-c3c4c(nc(CCc5ccc(F)cc5)c3-c3nnc(C)o3)[C@@H]3CCCN3C4=O)s2)c2ccccc21 (stereo in doubt) [Compound 48] | 321 nM |  | 
3 | COc1cccc2c1CC[C@H]2NC(=O)c1ccc(-c2c3c(nc(CCc4ccc(F)cc4)c2-c2nnc(C)o2)[C@H](C(C)C)NC3=O)s1 [Compound 3, N—[(R)-4-methoxy-1-indanyl]-5-{(S)-5-[2-(p-fluorophenyl)ethyl]-3-isopropyl-6-(5-methyl-1,3,4-oxadiazol-2-yl)-1-oxo-2,4-diaza-7-indanyl)-2-thenamide] | 70.2 nM |  | 
4 | Cc1nnc(-c2c(CCC34CCC(CC3)OC4)nc3c(c2-c2cc4ccnc(N[C@@H]5CCc6ncccc65)c4s2)c(=O)n2n3CCC2)o1 [Compound 147, 6-((2S)-2-methyl-10-(2-methyl-4-pyridyl)-7-oxo-11-[2-(tetrahydro-2H-pyran-4-yl)ethyl]-6,12-diazatricyclo[6.4.0.0,^1I]dodeca-1(12),8,10-trien-9-yl}-3-[(5-chloro-3-fluoro-2-pyridyl)methyl]-1,3-benzoxazol-2(3H)-one] |  | 17.2 nM | 180 nM
5 | Cc1cc(-c2c(CCC3CCOCC3)nc3c(c2-c2ccc4c(c2)oc(=O)n4Cc2ncc(Cl)cc2F)C(=O)N2CCC[C@@]32C)ccn1 [Compound 148, 6-((2S)-2-methyl-10-(2-methyl-4-pyridyl)-7-oxo-11-[2-(tetrahydro-2H-pyran-4-yl)ethyl]-6,12-diazatricyclo[6.4.0.0,^1I]dodeca-1(12),8,10-trien-9-yl}-3-[(5-chloro-3-fluoro-2-pyridyl)methyl]-1,3-benzoxazol-2(3H)-one] |  | 65.1 nM | 839 nM
6 | CC(C)c1nnc(-c2c(CCC3CCOCC3)nc3c(c2-c2ccc4c(c2)oc(=O)n4Cc2ccc(C#N)c(F)c2)c(=O)n2n3CCC2)o1 [Compound 150, 2-fluoro-4-[(6-(10-(5-isopropyl-1,3,4-oxadiazol-2-yl)-7-oxo-11-[2-(tetrahydro-2H-pyran-4-yl)ethyl]-2,6,12-triazatricyclo[6.4.0.0^2,6]dodeca-1(8),9,11-trien-9-yl}-2-oxo-1,3-benzoxazol-3-yl)methyl]benzonitrile] |  | 1.86 nM | 15.2 nM
7 | Cc1cc(-c2c(CCC3CCOCC3)nc3c(c2-c2ccc4c(c2)oc(=O)n4Cc2ccc(C#N)c(F)c2)c(=O)n2n3CCC2)ccn1 [Compound 151, 2-fluoro-4-[(6-(10-(2-methyl-4-pyridyl)-7-oxo-11-[2-(tetrahydro-2H-pyran-4-yl)ethyl]-2,6,12-triazatricyclo[6.4.0.0^2,6]dodeca-1(12),8,10-trien-9-yl}-2-oxo-1,3-benzoxazol-3-yl)methyl]benzonitrile] |  | 5.12 nM | 73 nM
8 | Cc1cnc(-c2c(CCC3CCOCC3)nc3c(c2-c2ccc4c(c2)oc(=O)n4Cc2ccc(C#N)c(F)c2)c(=O)n2n3CCC2)o1 [Compound 152, 2-fluoro-4-[(6-(10-(5-methyl-1,3-oxazol-2-yl)-7-oxo-11-[2-(tetrahydro-2H-pyran-4-yl)ethyl]-2,6,12-triazatricyclo[6.4.0.0^2,6]dodeca-1(12),8,10-trien-9-yl}-2-oxo-1,3-benzoxazol-3-yl)methyl]benzonitrile] |  | 7.28 nM | 40.1 nM
9 | CC(C)c1nnc(-c2c(CCC34CCC(CC3)OC4)nc3c(c2-c2ccc4c(c2)oc(=O)n4Cc2ccc(C#N)c(F)c2)c(=O)n2n3CCC2)o1 [Compound 153, 2-fluoro-4-({6-[10-(5-isopropyl-1,3,4-oxadiazol-2-yl)-11-(2-(2-oxabicyclo[2.2.2]oct-4-yl)ethyl}-7-oxo-2,6,12-triazatricyclo[6.4.0.0^2,6]dodeca-1(12),8,10-trien-9-yl]-2-oxo-1,3-benzoxazol-3-yl}methyl)benzonitrile] |  | 0.324 nM | 12.2 nM
10 | Cc1cnc(-c2c(CCC34CCC(CC3)OC4)nc3c(c2-c2ccc4c(c2)OCC(=O)N4Cc2ncc(Cl)cc2F)c(=O)n2n3CCC2)o1 [Compound 156] |  | 1.49 nM | 54.7 nM
11 | Cc1cnc(-c2c(CCC34CCC(CC3)OC4)nc3c(c2-c2ccc4c(c2)OCC(=O)N4Cc2ccc(F)cn2)c(=O)n2n3CCC2)o1 [Compound 157, 9-(4-[(5-fluoro-2-pyridyl)methyl]-3-oxo-2,4-dihydro-1,4-benzoxazin-7-yl}-10-(5-methyl-1,3-oxazol-2-yl)-11-(2-(2-oxabicyclo[2.2.2]oct-4-yl)ethyl}-2,6,12-triazatricyclo[6.4.0.0^2,6]dodeca-1(12),8,10-trien-7-one] |  | 9.64 nM | 270 nM
12 | Cc1nnc(-c2c(C(C)C)nc3c(c2-c2ccc4c(c2)OCC(=O)N4Cc2ccc(F)cn2)C(=O)N2CCC[C@@H]32)o1 [Compound 158, 7-((2S)-11-isopropyl-10-(5-methyl-1,3,4-oxadiazol-2-yl)-7-oxo-6,12-diazatricyclo[6.4.0.0^2,6]dodeca-1(12),8,10-trien-9-yl}-4-[(5-fluoro-2-pyridyl)methyl]-2,4-dihydro-1,4-benzoxazin-3-one] |  | 242 nM | 5880 nM
13 | Cc1cnc(-c2c(CCC34CCC(CC3)OC4)nc3c(c2-c2ccc4c(c2)OC(C)(C)C(=O)N4Cc2ccc(F)cn2)c(=O)n2n3CCC2)o1 [Compound 159, 9-(4-[(5-fluoro-2-pyridyl)methyl]-2,2-dimethyl-3-oxo-2,4-dihydro-1,4-benzoxazin-7-yl}-10-(5-methyl-1,3-oxazol-2-yl)-11-(2-(2-oxabicyclo[2.2.2]oct-4-yl)ethyl}-2,6,12-triazatricyclo[6.4.0.0^2,6]dodeca-1(12),8,10-trien-7-one] |  | 3.67 nM | 70.2 nM
14 | Cc1nnc(-c2c(C(C)C)nc3c(c2-c2ccc4c(c2)OC(C)(C)C(=O)N4Cc2ccc(F)cn2)C(=O)N2CC4CC32C4)o1 [Compound 160, 4-[(5-fluoro-2-pyridyl)methyl]-7-[4-isopropyl-5-(5-methyl-1,3,4-oxadiazol-2-yl)-8-oxo-3,9-diazatetracyclo[9.1.1.0^1,9.0^2,7]trideca-2,4,6-trien-6-yl]-2,2-dimethyl-4H-1,4-benzoxazin-3(2H)-one] |  | 26.9 nM | 596 nM
15 | CCc1nc2c(c(-c3ccc4c(c3)OC(C)(C)C(=O)N4Cc3ccc(F)cn3)c1-c1nnc(C)o1)C(=O)N1CC3CC21C3 [Compound 161, 7-[4-ethyl-5-(5-methyl-1,3,4-oxadiazol-2-yl)-8-oxo-3,9-diazatetracyclo[9.1.1.01, 0.2,1]trideca-2,4,6-trien-6-yl]-4-[(5-fluoro-2-pyridyl)methyl]-2,2-dimethyl-4H-1,4-benzoxazin-3(2H)-one] |  | 226 nM | 5380 nM
